According to the NIST ThermoML archive (doi:10.1021/acs.jced.7b00572):

Conditions: Liquid, Vibrating wire viscometry

O=C(C(F)(F)C(F)(F)F)C(F)(C(F)(F)F)C(F)(F)F [dodecafluoro-2-methylpentan-3-one]
Conditions | viscosity [mPa·s]
243.15 K, 10000 kPa | 1.923
243.15 K, 20000 kPa | 2.329
243.15 K, 40000 kPa | 3.247
243.16 K, 100 kPa | 1.597
243.16 K, 1000 kPa | 1.628
243.16 K, 5000 kPa | 1.749
243.16 K, 30000 kPa | 2.761
253.15 K, 100 kPa | 1.307
253.15 K, 1000 kPa | 1.339
253.15 K, 5000 kPa | 1.451
253.15 K, 10000 kPa | 1.58
253.15 K, 20000 kPa | 1.913
253.15 K, 30000 kPa | 2.26
253.16 K, 40000 kPa | 2.659
263.14 K, 5000 kPa | 1.197
263.14 K, 10000 kPa | 1.327
263.14 K, 20000 kPa | 1.573
263.14 K, 30000 kPa | 1.86
263.14 K, 40000 kPa | 2.169
263.15 K, 100 kPa | 1.082
263.15 K, 1000 kPa | 1.107
273.14 K, 100 kPa | 0.9209
273.14 K, 20000 kPa | 1.332
273.15 K, 1000 kPa | 0.9395
273.15 K, 5000 kPa | 1.014
273.15 K, 10000 kPa | 1.117
273.15 K, 30000 kPa | 1.566
273.15 K, 40000 kPa | 1.818
283.15 K, 100 kPa | 0.7823
283.15 K, 1000 kPa | 0.7955
283.15 K, 5000 kPa | 0.8641
283.15 K, 10000 kPa | 0.9569
283.15 K, 20000 kPa | 1.142
283.15 K, 30000 kPa | 1.345
283.15 K, 40000 kPa | 1.567
293.14 K, 10000 kPa | 0.8262
293.15 K, 100 kPa | 0.6693
293.15 K, 1000 kPa | 0.6851
293.15 K, 5000 kPa | 0.7466
293.15 K, 40000 kPa | 1.35
293.16 K, 20000 kPa | 0.9881
293.16 K, 30000 kPa | 1.156
303.14 K, 5000 kPa | 0.6463
303.15 K, 100 kPa | 0.5776
303.15 K, 10000 kPa | 0.7173
303.15 K, 20000 kPa | 0.861
303.15 K, 40000 kPa | 1.177
303.16 K, 1000 kPa | 0.5906
303.16 K, 30000 kPa | 1.013
313.13 K, 1000 kPa | 0.5123
313.14 K, 5000 kPa | 0.5621
313.14 K, 20000 kPa | 0.7566
313.14 K, 30000 kPa | 0.8908
313.15 K, 100 kPa | 0.5006
313.15 K, 10000 kPa | 0.6263
313.15 K, 40000 kPa | 1.033
323.16 K, 1000 kPa | 0.4465
323.16 K, 20000 kPa | 0.668
323.16 K, 30000 kPa | 0.7894
323.16 K, 40100 kPa | 0.9178
323.17 K, 5000 kPa | 0.4933
323.17 K, 10000 kPa | 0.5514
333.16 K, 1000 kPa | 0.3918
333.16 K, 5000 kPa | 0.4349
333.16 K, 10000 kPa | 0.4891
333.16 K, 20000 kPa | 0.5966
333.16 K, 30000 kPa | 0.7059
333.16 K, 40000 kPa | 0.8211
343.15 K, 5000 kPa | 0.3849
343.15 K, 10000 kPa | 0.4348
343.15 K, 20000 kPa | 0.5345
343.15 K, 30000 kPa | 0.6351
343.15 K, 40000 kPa | 0.7373
343.16 K, 1000 kPa | 0.342
353.15 K, 1000 kPa | 0.3011
353.15 K, 30000 kPa | 0.5739
353.15 K, 40000 kPa | 0.6681
353.16 K, 5000 kPa | 0.3426
353.16 K, 10000 kPa | 0.3892
353.16 K, 20000 kPa | 0.4822
363.15 K, 5000 kPa | 0.3044
363.15 K, 10000 kPa | 0.3496
363.15 K, 20000 kPa | 0.436
363.15 K, 30000 kPa | 0.5213
363.15 K, 40000 kPa | 0.608
373.15 K, 5000 kPa | 0.2711
373.15 K, 10000 kPa | 0.3155
373.15 K, 20000 kPa | 0.397
373.15 K, 30000 kPa | 0.4778
373.15 K, 40000 kPa | 0.5583
